In paper PMC6445123 (Scientific Reports, 2019):

Columns and labels:
Casp6 = target: T1, Casp6 (Homo sapiens, UniProt P55212, INS179NQTEKLDTNITEVD); experiment: Determination of inhibition mechanism and Ki (Michaelis-Menten, Lineweaver-Burk plots); format: biochemical
T1 construct: generating mainly large subunit with a linker (LS-L), small subunit (SS), and a minor amount of large subunit (LS); His (C); made in house; host or cells: E. coli BL21(DE3)pLysS
T1 sequence (P55212 24-193 limits assumed): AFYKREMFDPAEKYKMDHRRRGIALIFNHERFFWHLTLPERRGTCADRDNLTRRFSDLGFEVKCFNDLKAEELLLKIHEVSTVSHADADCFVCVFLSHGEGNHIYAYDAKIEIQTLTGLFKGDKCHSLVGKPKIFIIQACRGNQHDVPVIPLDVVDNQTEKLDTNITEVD
T1 sequence (P55212 194-293 limits assumed): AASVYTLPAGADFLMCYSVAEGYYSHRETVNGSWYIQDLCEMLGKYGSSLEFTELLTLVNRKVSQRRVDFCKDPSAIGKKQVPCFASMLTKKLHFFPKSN
Method: The inhibition of Casp6 activity with S10G and C13 was reversible (Fig. S5). To determine mode of inhibition, kinetic analyses were conducted on Casp6 using S10G and C13 (Fig. 4a). […] (Fig. 4b).
Compounds, S10G (2.5 µM, 4.2 µM, 10 µM), and C13 (5 µM, 14 µM, 50 µM), were added to 20 nM active site titrated Casp6 and enzyme activity was measured with eight different Ac-VEID-AFC substrate concentrations (5.0 μM–200 μM) using fluorescence-based Casp6 activity assay as above. The apparent KM and Vmax values were determined through nonlinear regression analysis of Michaelis-Menten plots (v vs. [S]) using GraphPad Prism 5. The inhibition mode was determined from the pattern of converging Lineweaver-Burk plots (1/v vs. 1/[S])[54]. The dissociation constant (Ki) for Casp6-inhibitor complex was determined from the x-axis intercept (which is equal to −Ki) in the plot of Lineweaver-Burk slopes vs. inhibitor concentration. Alternatively, inhibition model and Ki were determined by global fit of kinetic data to the competitive, noncompetitive, noncompetitive (mixed) or uncompetitive inhibition models using respective equations in GraphPad Prism 5.

recombinant active Casp6 = target: T2, recombinant active Casp6 (Homo sapiens, UniProt P55212, INS179NQTEKLDTNITEVD); experiment: Colorimetric Ac-VEID-pNA cleavage assay; format: biochemical; conditions: 100 µM compound, 200 µM Ac-VEID-pNA, 200 nM Casp6
T2 construct: generating mainly large subunit with a linker (LS-L), small subunit (SS), and a minor amount of large subunit (LS); His (C); made in house; host or cells: E. coli BL21(DE3)pLysS
T2 sequence (P55212 24-193 limits assumed): T1 sequence (P55212 24-193 limits assumed)
T2 sequence (P55212 194-293 limits assumed): T1 sequence (P55212 194-293 limits assumed)
Method: To assess the potency of in silico hits, a fluorescence-based Ac-VEID-AFC cleavage assay was used to measure recombinant active Casp6 reaction rate in the absence or presence of 100 µM concentration of compounds. A 30% inhibition cut off was arbitrarily chosen for further investigation of putative inhibitors. […] AFC signal interference by compound intrinsic fluorescence was ruled out (Fig. S4). Casp6 inhibition was confirmed for seven compounds (C7, C13, C14, S2, S10, S11 and S13) using a colorimetric Ac-VEID-pNA cleavage assay (Table 2, Fig. S3).
In fluorescence-based Casp6 activity assay, 10 µM Ac-VEID-AFC was added to 20 nM Casp6 in SB with 100 μM compound and 1% dimethyl sulfoxide (DMSO), and reaction rate was measured for 20 min at 37 °C as above. Compound potency was calculated by normalising Ac-VEID-AFC cleavage rate to 1% DMSO control. In colorimetric Casp6 activity assay, 200 µM Ac-VEID-pNA (N-acetyl-Val-Glu-Ile-Asp-p-nitroanilide, Enzo Life Sciences) was added to 200 nM Casp6 in SB with 100 μM compound, and Ac-VEID-pNA cleavage rate was measured at 37 °C for 30 min in clear 96-well plate (Sartstedt, Nümbrecht, Germany) using Synergy H4 plate reader at 405 nm. Absorbance was converted to the released pNA amount based on a standard curve of 0–250 µM pNA. Cleavage rates were calculated from the linear assay phase and were normalised to 1% DMSO control. In Casp6-C163A cleavage assay, 0.5 ng/µl Casp6-WT was preincubated with 100 µM inhibitor, 5 µM Q-VD-OPh or 1% DMSO in SB (30 min, RT), followed by transfer on ice, addition of 0.5 µg/µl Casp6-C163A, and incubation (37 °C, 5, 10 and 15 min). Reactions were stopped by adding SDS-PAGE sample buffer (62.5 mM Tris pH 6.8, 2% SDS, 0.1 M DTT, 0.01% Bromphenol Blue, 10% glycerol) and heating (5 min, 95 °C). Samples (2 µl) were analysed on 15% SDS-PAGE gels, proteins were stained with Coomassie blue, and gels were de-stained with 10% acetic acid. The intensities of protein bands were quantified from scanned gels using ImageJ. The band intensity of Casp6-C163A without a prodomain was plotted against the time and the Casp6-C163A cleavage rates were calculated from the slopes of linear plots. The % activity of Casp6-WT in the presence of inhibitors was calculated relative to DMSO control.

mode of inhibition (Casp6; Lineweaver-Burk plot pattern): noncompetitive inhibition
Ki (Casp6; from plot of Lineweaver-Burk slopes vs inhibitor concentration, Casp6, Ac-VEID-AFC, read-out: Ki (dissociation constant)): 5.3 µM
inhibition at 100 µM (recombinant active Casp6): 86.7%
Structure (SMILES): COC(=O)c1cc(CNC(=O)C2Cc3ccccc3O2)cc(NC(=O)c2ccco2)c1 (stereo not drawn) [Compound C13]
